Measured values reported in patent US20220340566A1, “BENZYL AMINE-CONTAINING 5,6-HETEROAROMATIC COMPOUNDS USEFUL AGAINST MYCOBACTERIAL INFECTION” (priority 2019, published 2022).

Legend:
[1] = test system: Mycobacterium avium ATCC700898; experiment: Determination of IC85 against M. avium (resazurin fluorescence); format: cell-based; settings: Mycobacterium avium, ATCC700898, M. avium ATCC700898, CAMHB medium, 37° C., 3 days incubation then resazurin, fluorescence one day later; read-out: IC85
[2] = Metabolic stability test in pooled human liver microsomes; format: in vitro ADME; settings: human liver microsomes 0.5 mg protein/mL, 1 mmol/L NADPH, 37° C., 30 minutes
Procedure: Using a commercially available pooled human liver microsomes, a compound of the present invention was reacted for a constant time, a remaining rate was calculated by comparing a reacted sample and an unreacted sample, thereby, a degree of metabolism in liver was assessed.
A reaction was performed (oxidative reaction) at 37° C. for 0 minute or 30 minutes in the presence of 1 mmol/L NADPH in 0.2 mL of a buffer (50 mmol/L Tris-HCl pH 7.4, 150 mmol/L potassium chloride, 10 mmol/L magnesium chloride) containing 0.5 mg protein/mL of human liver microsomes. After the reaction, 50 μL of the reaction solution was added to 100 μL of a methanol/acetonitrile=1/1 (v/v), mixed and centrifuged at 3000 rpm for 15 minutes. The compound of the present invention in the supernatant was quantified by LC/MS/MS or solid phase extraction (SPE)/MS, and a remaining amount of the compound of the present invention after the reaction was calculated, letting a compound amount at 0 minute reaction time to be 100%.

Compound	IC85 [1] [nM]	MS_h_% (remaining amount of compound after reaction, 0 minute = 100%) [2] [%]
Cc1nc2cnccn2c1C(=O)NCc1ccc(N2CCN(c3ccc(OC(F)(F)F)cc3)CC2)c(F)c1 [Compound I-3-48]	660	60.4
Cc1ccn2c(C(=O)NCc3ccc(N4CCC(c5ccc(OC(F)(F)F)cc5)[C@@H](C)C4)c(F)c3)c(Cl)nc2c1.Cl (stereo partly drawn) [Compound I-1-58]	77	89
Cc1nc2ccc(F)cn2c1C(=O)NCc1ccc(N2CCN(c3ccc(OC(F)(F)F)cc3)[C@@H](C)C2)cc1 [Compound I-3-23]	15	77.8
C[C@H]1CN(c2ccc(CNC(=O)c3c(Cl)nc4ccccn34)cc2F)CCN1c1ccc(OC(F)(F)F)cc1.Cl [Compound I-1-59]	11	87
[2H]c1c(C([2H])([2H])[2H])c([2H])n2c(C(=O)NCc3ccc(S(F)(F)(F)(F)F)cc3)c(C)nc2c1[2H] [Compound I-3-35]	110	71.3
COc1ccn2nc(C)c(C(=O)NCc3cc(F)c(N4CCN(c5ccc(OC(F)(F)F)cc5)[C@@H](C)C4)cc3F)c2c1.Cl [Compound I-1-131]	45	73
CCc1nc2ccc(Cl)cn2c1C(=O)NCc1ccc(C2CCN(c3ccc(C(C)(C)C)cc3)CC2)cc1F.Cl [Compound I-1-144]	17	67
Cc1ccn2c(C(=O)NCc3ccc(N4C[C@H](C)N(c5ccc(OC(F)(F)F)cc5)C[C@H]4C)c(F)c3)c(C)nc2c1 [Compound I-1-41]	180	86
Cc1ccn2c(C(=O)NCc3ccc(N4CC=C(c5ccc(OC(F)(F)F)cc5)CC4)c(F)c3)c(C)nc2c1.Cl [Compound I-1-61]	200	95
CCc1nc2cc(F)ccn2c1C(=O)NCc1ccc(N2CCN(c3ccc(OC(F)(F)F)c(F)c3)[C@@H](C)C2)c(F)c1.Cl [Compound I-1-117]	2.5	83
Cc1ccn2c(C(=O)NCc3ccc(N4CCN(c5ccc(OC(F)(F)F)cc5)[C@H](C)C4)c(F)c3)c(C)nc2c1 [Compound I-1-12]	70	64
Cc1ccn2c(C(=O)NCc3ccc(C4CCN(c5ccc(OCCF)cc5)CC4)c(F)c3)c(C)nc2c1 [Compound I-1-5]	48	70
Cc1ccn2c(C(=O)NCc3ccc(C4CCN(c5ccc(OC(C)C)cc5)CC4)cc3F)c(C)nc2c1 [Compound I-1-9]	940	82
COc1ccn2nc(C)c(C(=O)NCc3ccc(N4CCN(c5ccc(OC(F)(F)F)cc5)[C@@H](C)C4)c(F)c3F)c2c1.Cl [Compound I-1-130]	49	74
Cc1nn2cc(F)ccc2c1C(=O)NCc1ccc(N2CCN(c3ccc(OC(F)(F)F)cc3)[C@@H](C)C2)c(F)c1.Cl [Compound I-1-105]	59	77
CCc1nc2ccc(Cl)cn2c1C(=O)NCc1ccc(N2CCN(c3ccc(OC(F)(F)F)cc3F)[C@@H](CC)C2)c(F)c1.Cl [Compound I-2-10]	23	72.2
Cc1ccn2c(C(=O)NCc3ccc(C4CCN(c5ccc(OC(F)(F)F)cc5)CC4)cc3F)c(C)nc2c1 [Compound I-1-8]	580	86
CCc1nc2ccc(Cl)cn2c1C(=O)NCc1ccc(N2CCN(c3ccc(OCC(F)(F)F)nc3)[C@@H](C)C2)c(F)c1 [Compound I-1-45]	11	64
